Source: patent US20200397711A1, “MICROPARTICLE COMPOSITIONS FOR TREATMENT OF INFECTION OR DISEASE, METHODS OF MAKING THE SAME, AND METHODS OF TREATING SUBJECTS WITH MICROPARTICLE COMPOSITIONS” (priority 2019, published 2020)

How the values were obtained:
[1] = test system: planktonic and biofilm-associated Listeria monocytogenes and Salmonella typhimurium; settings: combined with streptomycin; cited from earlier work
[2] = test system: biofilms of K. pneumoniae; settings: cited from earlier work
[3] = test system: Pseudomonas aeruginosa, Staphylococcus aureus and Candida albicans; experiment: Antimicrobial efficacy of liposome-encapsulated silver and tea tree oil; type: cell-based; settings: singly and in combination, in a controlled release liposomal carrier system
Source text: The aspects, advantages and/or other features of example embodiments of the present disclosure will become apparent to those skilled in the art, in view of the present detailed description. It should be apparent to those skilled in the art that the described embodiments of the present disclosure provided herein are merely exemplary and illustrative and not limiting. Numerous embodiments of modifications thereof are contemplated as falling within the scope of the present disclosure and equivalents thereto. Unless otherwise noted, technical terms are used according to conventional usage. Any publications mentioned in this specification are indicative of the level of those skilled in the art to which the invention pertains and are incorporated by reference in their entirety. […]

Row | Compound | interaction with streptomycin [1] | further results
1 | COc1ccc2cc3[n+](cc2c1OC)CCc1cc2c(cc1-3)OCO2 [berberine] | synergistic effect | –
2 | O=C(O)c1cn(C2CC2)c2cc(N3CCNCC3)c(F)cc2c1=O [ciprofloxacin] | – | inhibition/eradication of biofilms [2]: inhibit/eradicate biofilms
3 | O=CC=Cc1ccccc1 [cinnamaldehyde] | synergistic effect | –
4 | silver | – | antimicrobial efficacy and effective concentration required [3]: can improve their antimicrobial efficacy as well as reduce the effective concentration required
5 | Cc1ccc(C(C)C)c(O)c1 [thymol] | synergistic effect | –
6 | C=CCc1ccc(O)c(OC)c1 [eugenol] | synergistic effect | –
